# Experimental data: PMC11018795, “The regulatory relationship between NAMPT and PD-L1 in cancer and identification of a dual-targeting inhibitor” (EMBO Molecular Medicine, 2024)
# “And” between values parts separate entries of the source, which are not always exact repeats. Identical values can stand only once.
# What was measured:
# MKN74 cells = assay: MTT assay 48 h, MKN74; assay type: cell-based, human
# Protocol: (§1) Cells (5 × 10^3/well) were seeded into a 96-well plate and cultured at 37 °C in a 5% CO2 incubator. […] At the final time point, 10 μl MTT solution (5 mg/ml, Sigma, Burlington, MA, USA) was added to each well and incubated for an additional 4 h at 37 °C in a 5% CO2 incubator. Then,100 μl of DMSO was added to each well and mixed thoroughly. Optical density was measured at 492 nm using a microplate reader (Molecular Devices, San Jose, CA, USA).
# CT-26 cells = assay: MTT assay 48 h, CT-26; assay type: cell-based, mouse
# Protocol: as §1
# H1299 cells = assay: MTT assay 48 h, H1299; assay type: cell-based, human; details: 1299
# Protocol: as §1
# LLC cells [1] = assay: Apoptosis assay (Annexin V/PI), LLC; assay type: cell-based, mouse
# Protocol: The cells are treated with the compounds. After 48–72 h, the cells were harvested and washed twice with cold PBS. The cells were then stained with Annexin V/propidium iodide (PI) (BD Biosciences) and examined using a NovoCyte Flow Cytometer (ACEA Biosciences). Data were analyzed using NovoExpress software (ACEA Biosciences).
# [2] = test system: LLC OE PD-L1 cells co-cultured with T cells; assay: T cell-mediated tumor cell killing assay, LLC OE PD-L1; assay type: cell-based; details: Mus musculus, 100 nM, read-out: inhibition rate (T cell-mediated killing)
# Protocol: To acquire activated T cells, human peripheral blood mononuclear cells (PBMC; LTS1077, Yanjin Biological) were cultured in CTSTM AIIM VTM SFM (A3021002; Gibco) with ImmunoCult Human CD3/CD28/CD2 T-cell activator (25 µL/mL; […] Technologies, Cat#10970) for 48 h according to the manufacturer’s protocol. The experiments were performed using mouse anti-CD3 antibody (1 µg/mL; Thermo Scientific, 16-0032-82) and anti-CD28 antibody(5 µg/mL; Thermo Scientific, 16-0281-82). Cancer cells were allowed to adhere to the plates overnight and then incubated for 48 h with activated T cells in the presence or absence of DX ([…]). Different proportions of cancer cells and activated T cells were utilized according to the purpose of each experiment. The T-cell proliferation assay was 1:3; the T-cell killing assay was 1:10; T cells and cell debris were removed by PBS washing, and the living cancer cells were then quantified by a spectrometer at OD (570 nm) followed by crystal violet staining. page 12: Fig 3: […] expression patterns. […] Data was obtained from the TCGA database. (B) T cell-mediated tumor cell killing assay. T cells were co-cultured with LLC Vector, […] CQ-85, or BMS202. […] stained by crystal violet. The relative added value of activated T cells is shown below. Data are presented as mean ± SEM; *P < 0.05, **P < 0.01, ***P < 0.001, compared with control. n.s., not significant. […]
# PC9 cells = assay: MTT assay 48 h, PC9; assay type: cell-based, human
# Protocol: as §1
# LLC cells [3] = assay: Clonogenic assay, LLC; assay type: cell-based, mouse; details: 9 days
# Protocol: Cells (3 × 10^2/well) were plated in a six-well plate and the culture medium was replaced every 2 days. After culturing for 7–10 d, the cells were fixed with 4% paraformaldehyde for 15 min, stained with 0.1% crystal violet for 30 min, and imaged and counted.
# A2780 cells = assay: MTT assay 48 h, A2780; assay type: cell-based, human
# Protocol: as §1
# LLC Vector cells = assay: Cell viability 72 h, LLC Vector (Fig 4C); assay type: cell-based, mouse
# Protocol: as §1, with “In vitro cell viability was determined using a Cell Counting Kit-8 (MCE) assay. Cells (5 × 10^3/well) were seeded in 96-well culture plates. After 24 h, they were incubated with various concentrations of the test compounds for 48–72 h at 37 °C in a 5% CO2 incubator. Next, 10% of the CCK-8 solution was added to each well, and the plates were incubated for an additional 4 h at 37 °C. The optical density of each well was measured at 450 nm using a multimode plate reader (Molecular Devices, San Jose, CA, USA). Cells” for “Cells”
# [4] = test system: NAD+ content of A2780 cells; assay: NAD+ assay in A2780 cells; assay type: cell-based, human; details: for Relative NAD+: 0 nM = 100
# Protocol: NAD^+ assays were performed to quantify the total NAD^+ content. NAD^+ assay was performed using the NAD/NADH Assay Kit (ab65348; Abcam) according to the manufacturer’s recommended protocol.
structure (smiles),measurement,setting,value
CCN(CC)CCCOc1cccc(-c2cccc3c2CCN3C(=O)c2ncc(CNC(=NC#N)Nc3ccncc3)s2)c1 [LZFPN-90],Relative inhibition (敏感性),MKN74 cells,0.79
same,Relative inhibition (敏感性),CT-26 cells,0.17
same,Relative inhibition (敏感性),H1299 cells,0.02
same,Apoptotic cells (sum of both Annexin-positive quadrants),LLC cells [1]; LZ90 15 nM,5.3 and 5.6 and 7.76
same,Apoptotic cells (sum of both Annexin-positive quadrants),LLC cells [1]; LZ90 60 nM,15.11 and 14.38 and 15.17
same,Apoptotic cells (sum of both Annexin-positive quadrants),LLC cells [1]; LZ90 240 nM,25.37 and 24.61 and 22.88
same,inhibition at 0.1 µM,[2],~60%
same,Relative inhibition (敏感性),PC9 cells,0.29
same,Colony formation relative to Ctrl,LLC cells [3]; LZ90-H (80 nM),0.24
same,Colony formation relative to Ctrl,"LLC cells [3]; LZ90-L (20 nM), Ctrl = 1",0.68
same,Colony formation relative to Ctrl,LLC cells [3]; LZ90-M (40 nM),0.53
same,Relative inhibition (敏感性),A2780 cells,0.85
same,Relative viability,"LLC Vector cells; LZ90 0.25 (nM), 0 = 100",89.7901 and 87.9705 and 96.555
same,Relative viability,LLC Vector cells; LZ90 1,87.3413 and 95.1235 and 101.277
same,Relative viability,LLC Vector cells; LZ90 4,85.618 and 92.9893 and 92.8571
same,Relative viability,LLC Vector cells; LZ90 16,83.9984 and 83.5338 and 75.7769
same,Relative viability,LLC Vector cells; LZ90 64,79.4506 and 87.9576 and 68.4293
same,Relative viability,LLC Vector cells; LZ90 256,70.355 and 68.0766 and 71.9586
same,effect on NAD+ content,[4]; A2780 cells,concentration-dependent reduction in the NAD^+ content
same,Relative NAD+,[4]; LZFPN-90 1.25 nM,35.1891 and 32.3761
same,Relative NAD+,[4]; LZFPN-90 2.5 nM,12.5247 and 11.2894
same,Relative NAD+,[4]; LZFPN-90 5 nM,8.877 and 6.867
same,Relative NAD+,[4]; LZFPN-90 10 nM,2.626 and 2.637
